Data taken from patent US11529344B2, “EZH2 inhibitor combination therapies” (Pfizer Inc., priority 2017, dated 2022).

Legend:
H446 SCLC cells = experiment: Cell growth inhibition assay, H446 SCLC cells; type: cell-based; settings: Homo sapiens, NCI-H446, 504 h; H446 cell line, 21 days of treatment; read-out: inhibition of cell proliferation, mean IC50
Procedure: COR-L88 (92031917) cells were purchased from ECACC. […] No. 1565565).
H841, H446 and H69 cells were plated in their recommended complete culture medium described above (1 mL/well) in triplicate 12 well plates for each cell line at a density of 100,000 cells per well. Plates were incubated overnight at 37° C. and 5% CO2. Compound 1 stock was prepared at 50 mM in DMSO and was dispensed to several single-use aliquots and stored at −20° C. To prepare the compound plate, Compound 1 was diluted to 3 mM in DMSO and then 3-fold serial dilution were made in DMSO (10 doses in total). […] On Day 21, cell morphology was observed under microscope and any morphology changes upon compound treatment were recorded. […] Cell viability was measured using according to manufacturer's instructions.
Based on the strong activity observed with Compound 1 in DMS114 cells (see example 1 above), the antiproliferative activity of Compound 1 was also tested in 3 additional SCLC cell lines, namely H841, H446 and H69 using the cell proliferation assay described above. Each cell line was treated with different concentrations of Compound 1 using a 10-point dose curve (1:3 dilution in DMSO) with 3 μM to 0.1 nM for 21 days and then assessed for cell viability. […]

[1] = tested on: H3K27Me3 in DMS114 tumors; experiment: H3K27Me3 ELISA on histones of DMS114 xenograft tumors; type: in vivo, female NOD/SCID mice; settings: Mus musculus, DMS-114, 1320 h; 300 mg/kg BID, tumors harvested at Day 55; read-out: maximum inhibition of H3K27Me3 in tumor samples
Procedure: Extracts were aliquoted and stored at −20° C. (short term) or −80° C. (long term). […] Data was analyzed using GraphPad Prism version 7.02.
The in vivo activity of Compound 1 against EZH2 in the DMS114 SCLC xenograft model was determined by measurement of the relative amount of cellular H3K27Me3 and Me2 levels with ELISA using the tumor tissue samples harvested at Day 55 from the study described in Example 3 above.

[2] = tested on: SLFN11 expression in SCLC cell lines; experiment: SLFN11 western blotting; type: cell-based; settings: 500 nM for 7 days, several SCLC cell lines
Procedure: SCLC cell lines were treated with 500 nM of Compound 1 in DMSO for 7 days and changes in SLFN11 protein levels were then assessed using western blotting. After drug treatment, cells were trypsized (adherent cells), harvested by centrifugation at 2000 rpm at room temperature, washed with PBS, followed by collection of cell pellets by centrifugation. Cell pellets were re-suspended in appropriate volume of RIPA buffer (Sigma; Catalogue #R0278; 100 ul per 5-10×10^5 cells), incubated on ice for 10-15 min, centrifuged at 12,000 g and 4° C. for 10 min and then supernatant was collected. 15 ug of total protein lysates was run on 4-12% NuPAGE™ Bis-Tris protein gel (NP0336Box) in 1×NuPAGE™ MOPS SDS Running Buffer (NP0001). Gels were run on ice at 80V for 20 minutes and then 150V for 60 minutes. […] The signal was detected using the ECL system (Thermo-34078 and -34096) and imaged on the ImageQuant LAS400 imager.
To understand the potential mechanisms responsible for EZH2i synergy observed with chemotherapy agents, we assessed the effects of Compound 1 treatment on SLFN11 expression, a sensitizer to DNA damaging agents. Several SCLC cell lines were treated with 500 nM of Compound 1 for 7 days and changes in SLFN11 protein levels were assessed using western blotting according to the methodology described above.

## COc1cc(C)[nH]c(=O)c1CN1CCc2c(Cl)cc([C@H](OC)C3COC3)c(Cl)c2C1=O [Compound 1, 5,8-dichloro-2-[(4-methoxy-6-methyl-2-oxo-1,2-dihydro-pyridin-3-yl)methyl]-7-[(R)-methoxy(oxetan-3-yl)methyl]-3,4-dihydroisoquinolin-1(2H)-one]
H446 SCLC cells
  IC50: 109 nM
[1]
  inhibition at 300 mg/kg: 96%
[2]
  SLFN11 protein expression: strong induction of SLFN11 expression
